Consider 24 molecules from ChEMBL document CHEMBL1137795, “Bioactive compounds from aquatic and terrestrial sources” (J Nat Prod, 1990).

The structures appear in SMILES notation. Values after ≈ are worked out from the molar mass of the structure shown. Active and inactive are the calls of the source. The rule behind the calls is not given here. Numbered stars: 1 amine (or outer) side, 2 acyl side, 3 side chain; on linkers, the order of the positions; unused ones are H or OH. Bridge positions count the residues as written; N and C are the ends. Square brackets hold non-standard residues; d marks the D form. Peptide text beside a SMILES is read from it. X1 = CC[C@H](C)[C@@H](N[*:1])[C@@H](O)CC(=O)O[C@H](C(=O)[C@H](C)C(=O)[*:2])C(C)C; NMeY = CN[C@@H](Cc1ccc(O)cc1)C(=O)O; dNMeL = CN[C@H](CC(C)C)C(=O)O; Lac = C[C@H](O)C(=O)O

For test [1], the system named is Vesicular stomatitis virus. The experiment in a line: Antiviral activity against VSV assessed as reduction in plaque formation at 30 ng. It counts as functional, organism-based.
The subject of test [2] is Human alphaherpesvirus 1. The experiment in a line: Antiviral activity against HSV1 assessed as reduction in plaque formation at 30 ng. It counts as functional, organism-based.
The next test relates to L1210. The experiment in a line: Cytotoxicity against mouse L1210 cells. It counts as functional, cell-based.
The test system of test [3] is Vesicular stomatitis virus. The experiment in a line: Antiviral activity against VSV assessed as reduction in plaque formation at 100 ng. It counts as functional, organism-based.
The test system of test [4] is P388. Kind of test: In vivo antitumor activity against mouse P388 cells at 250 ug/kg relative to control. It counts as functional.
For test [5], the system named is Vesicular stomatitis virus. Kind of test: Antiviral activity against VSV assessed as reduction in plaque formation at 100 ug. It counts as functional, organism-based.
The subject of test [6] is Human alphaherpesvirus 1. Kind of test: Antiviral activity against HSV1 assessed as reduction in plaque formation at 10 ug. It counts as functional, organism-based.
Test [7] concerns Human alphaherpesvirus 1. The experiment in a line: Antiviral activity against HSV1 assessed as reduction in plaque formation at 100 ug. It is filed as functional, organism-based.
Another test concerns B16. Kind of test: In vivo antitumor activity against mouse B16 cells at 10 ug/kg relative to control. It is filed as functional.
For test [8], the system named is P388. The experiment in a line: In vivo antitumor activity against mouse P388 cells at 3.8 ug/kg relative to control. It counts as functional.
Test [9] relates to Human alphaherpesvirus 1. Kind of test: Antiviral activity against HSV1 assessed as reduction in plaque formation at 20 ng. It is filed as functional, organism-based.
The test system of test [10] is Human alphaherpesvirus 1. Kind of test: Antiviral activity against HSV1 assessed as reduction in plaque formation at 780 ng. It is filed as functional, organism-based.
Test [11] deals with Vesicular stomatitis virus. The experiment in a line: Antiviral activity against VSV assessed as reduction in plaque formation at 20 ng. It is filed as functional, organism-based.
For test [12], the system named is P388. Kind of test: In vivo antitumor activity against mouse P388 cells at 15 ug/kg relative to control. It counts as functional.

As for `CC(=O)O[C@H]1C[C@]2(C)[C@H]3[C@H](O)C(=O)[C@]4(C)[C@@H](c5ccc(=O)oc5)CC[C@]4(O)[C@@H]3CC[C@]2(O)C[C@H]1OC(=O)C(C)C`, the result (in [1]; with Human alphaherpesvirus 1 [2]) was inactive.

In the test on L1210, `CCCCCCC[C@@H](O)CC(=O)N[C@@H](CCC(N)=O)C(=O)N[C@@H](CCC(N)=O)C(=O)N[C@@H](CCC(=O)O)C(=O)O[C@@H](C)C(=O)N1CCC[C@H]1C(=O)N(C)[C@H](CC(C)C)C(=O)N[C@@H]1C(=O)N[C@@H]([C@@H](C)CC)[C@@H](O)CC(=O)O[C@@H](C(C)C)C(=O)[C@H](C)C(=O)N[C@@H](CC(C)C)C(=O)N2CCC[C@H]2C(=O)N(C)[C@@H](Cc2ccc(OC)cc2)C(=O)O[C@@H]1C` [DIDEMNIN X] returned a half-inhibitory concentration (IC50) of 4.4 ng/mL (≈ 2.64 nM).

Take `CCC(=O)O[C@@H]1C[C@@]2(O)CC[C@@H]3[C@H]([C@H](O)C(=O)[C@]4(C)[C@@H](c5ccc(=O)oc5)CC[C@]34O)[C@@]2(C)C[C@@H]1OC(C)=O`: the outcome (in [1]; with Human alphaherpesvirus 1 [2]; in test [3]) was inactive.

In turn, `COc1cc2c(cc1O)CCN[C@]21CS[C@@H]2c3c(OC(C)=O)c(C)c4c(c3[C@H](COC1=O)N1C[C@@H]3Cc5cc(C)c(OC)c(O)c5[C@H]([C@H]21)N3C)OCO4` [ECTEINASCIDIN 745] returned an IC50 in the test with L1210 of 88 ng/mL (≈ 118 nM). The T/C in the test with P388 [4] is 111%.

Take `NC(=O)c1ncn([C@@H]2O[C@H](CO)[C@@H](O)[C@H]2O)n1`: the result in [5] was Active.

`CC[C@H](C)[C@@H]1NC(=O)[C@@H](N2CN(C)[C@H](CC(C)C)C2=O)[C@@H](C)OC(=O)[C@H](Cc2ccc(OC)cc2)N(C)C(=O)[C@@H]2CCCN2C(=O)[C@H](CC(C)C)NC(=O)[C@@H](C)C(=O)[C@H](C(C)C)OC(=O)C[C@@H]1O` [METHYLENE DIDEMNIN A] registered an IC50 with L1210 of 6.5 ng/mL (≈ 6.8 nM).

For the molecule `Nc1nc2c(ncn2COCCO)c(=O)[nH]1`, the result in the test on Human alphaherpesvirus 1 [6] and in the test on Human alphaherpesvirus 1 [7] was Active.

On to `COc1cc2c(cc1O)CCN[C@]21CS[C@@H]2c3c(OC(C)=O)c(C)c4c(c3[C@H](COC1=O)N1[C@@H]2[C@@H]2N[C@@H](Cc3cc(C)c(OC)c(O)c32)[C@@H]1O)OCO4` [ECTEINASCIDIN 729], for which the values for the T/C in the test with B16 and in the test with P388 [8] were 246% and 214%, respectively.

Consider `CCCCCCC[C@@H](O)CC(=O)N[C@@H](CCC(N)=O)C(=O)N[C@@H](CCC(N)=O)C(=O)N[C@@H](CCC(N)=O)C(=O)N[C@@H](CCC(=O)O)C(=O)O[C@@H](C)C(=O)N1CCC[C@H]1C(=O)N(C)[C@H](CC(C)C)C(=O)N[C@@H]1C(=O)N[C@@H]([C@@H](C)CC)[C@@H](O)CC(=O)O[C@@H](C(C)C)C(=O)[C@H](C)C(=O)N[C@@H](CC(C)C)C(=O)N2CCC[C@H]2C(=O)N(C)[C@@H](Cc2ccc(OC)cc2)C(=O)O[C@@H]1C` [DIDEMNIN Y], for which the IC50 in the test with L1210 turned out to be 5.6 ng/mL (≈ 3.12 nM).

For `CC[C@H](C)[C@@H]1NC(=O)[C@@H](NC(=O)[C@@H](CC(C)C)N(C)C=O)[C@@H](C)OC(=O)[C@H](Cc2ccc(OC)cc2)N(C)C(=O)[C@@H]2CCCN2C(=O)[C@H](CC(C)C)NC(=O)[C@@H](C)C(=O)[C@H](C(C)C)OC(=O)C[C@@H]1O` [DIDEMNIN G], inhibition in the test with L1210 was half-maximal at 6 ng/mL (≈ 6.18 nM) (IC50).

`CC(=O)O[C@H]1C[C@]2(C)[C@H]3[C@H](O)C(=O)[C@]4(C)[C@@H](c5ccc(=O)oc5)CC[C@]4(O)[C@@H]3CC[C@]2(O)C[C@H]1OC(C)=O`: in the test with Human alphaherpesvirus 1 [9], the outcome was inactive. In addition, the result in the test on Human alphaherpesvirus 1 [10] was Active. Moreover, the AC50 result in test [11] is listed as “Not Active”.

With `CC(=O)O[C@H]1C[C@]2(C)[C@H]3[C@H](O)C(=O)[C@]4(C)[C@@H](c5ccc(=O)oc5)CC[C@]4(O)[C@@H]3CC[C@]2(O)C[C@H]1O`, in [3], the outcome was inactive.

Turning to `CC[C@H](C)[C@@H]1NC(=O)[C@@H](NC(=O)[C@@H](CC(C)C)N(C)C(=O)[C@@H]2CCCN2C(=O)[C@H](C)OC(=O)[C@H](CCC(=O)O)NC(=O)[C@H](CCC(N)=O)NC(=O)[C@@H](N)CCC(N)=O)[C@@H](C)OC(=O)[C@H](Cc2ccc(OC)cc2)N(C)C(=O)[C@@H]2CCCN2C(=O)[C@H](CC(C)C)NC(=O)[C@@H](C)C(=O)[C@H](C(C)C)OC(=O)C[C@@H]1O` [DIDEMNIN E], in the test with L1210, inhibition was half-maximal at 3 ng/mL (≈ 2 nM) (IC50).

`CC[C@H](C)[C@@H]1NC(=O)[C@@H](NC(=O)[C@@H](CC(C)C)N(C)C(=O)[C@@H]2CCCN2C(=O)[C@H](C)OC(=O)[C@H](CCC(=O)O)NC(=O)[C@H](CCC(N)=O)NC(=O)[C@H](CCC(N)=O)NC(=O)[C@@H](N)CCC(N)=O)[C@@H](C)OC(=O)[C@H](Cc2ccc(OC)cc2)N(C)C(=O)[C@@H]2CCCN2C(=O)[C@H](CC(C)C)NC(=O)[C@@H](C)C(=O)[C@H](C(C)C)OC(=O)C[C@@H]1O` [DIDEMNIN D] returned an IC50 with L1210 of 5 ng/mL (≈ 3.08 nM).

As to `CC(=O)O[C@@H]1C[C@@]2(O)CC[C@@H]3[C@H]([C@H](O)C(=O)[C@]4(C)[C@@H](c5ccc(=O)oc5)CC[C@]34O)[C@@]2(C)C[C@@H]1O`, the outcome in test [3] was inactive.

`CC[C@H](C)[C@@H]1NC(=O)[C@@H](NC(=O)[C@@H](CC(C)C)N(C)C(=O)[C@@H]2CCCN2C(=O)[C@H](C)OC(C)=O)[C@H](C)OC(=O)[C@H](Cc2ccc(OC)cc2)N(C)C(=O)[C@@H]2CCCN2C(=O)[C@H](CC(C)C)NC(=O)[C@@H](C)C(=O)[C@H](C(C)C)OC(=O)C[C@@H]1O` [NORDIDEMNIN B] gave an IC50 with L1210 of 7.8 ng/mL (≈ 6.76 nM).

On to `COc1cc2c(cc1O)CCN[C@]21CS[C@@H]2c3c(OC(C)=O)c(C)c4c(c3[C@H](COC1=O)N1[C@@H]2[C@H]2c3c(cc(C)c(OC)c3O)C[C@@H]([C@@H]1O)N2C)OCO4` [TRABECTEDIN], for which half-maximal inhibition in the test with L1210 (IC50) was put at 0.5 ng/mL (≈ 0.656 nM). The molecule also had a T/C with P388 [12] of 167%.

On to `CC[C@H](C)[C@H]1NC(=O)[C@@H](NC(=O)[C@@H](CC(C)C)N(C)C(=O)[C@H](C)O)[C@@H](C)OC(=O)[C@H](Cc2ccc(OC)cc2)N(C)C(=O)[C@@H]2CCCN2C(=O)[C@H](CC(C)C)NC(=O)[C@@H](C)C(=O)[C@H](C(C)C)OC(=O)C[C@@H]1O` [DIDEMNIN C] (H-[Lac][dNMeL]T[X1]LP[NMeY](Me); ester 3-C), for which the IC50 in the test on L1210 turned out to be 11 ng/mL (≈ 10.8 nM).

With `CC[C@H](C)[C@H]1NC(=O)[C@@H](NC(=O)[C@@H](CC(C)C)NC)[C@@H](C)OC(=O)[C@H](Cc2ccc(OC)cc2)N(C)C(=O)[C@@H]2CCCN2C(=O)[C@H](CC(C)C)NC(=O)[C@@H](C)C(=O)[C@H](C(C)C)OC(=O)C[C@@H]1O` [DIDEMNIN A] (H-[dNMeL]T[X1]LP[NMeY](Me); ester 2-C), the IC50 with L1210 came out at 14 ng/mL (≈ 14.8 nM).

In the test with L1210, `CC[C@H](C)[C@@H]1NC(=O)[C@@H](NC(=O)[C@@H](CC(C)C)N(C)C(=O)[C@@H]2CCCN2C(=O)[C@H](C)OC(C)=O)[C@@H](C)OC(=O)[C@H](Cc2ccc(OC)cc2)N(C)C(=O)[C@@H]2CCCN2C(=O)[C@H](CC(C)C)NC(=O)[C@@H](C)C(=O)[C@H](C(C)C)OC(=O)C[C@@H]1OC(C)=O` displayed an IC50 of 1.6 ng/mL (≈ 1.34 nM).

`CC[C@H](C)[C@@H]1NC(=O)[C@@H](NC(=O)[C@@H](CC(C)C)NC)[C@@H](C)OC(=O)[C@H](Cc2ccc(OC)cc2)N(C)C(=O)[C@@H]2CCCN2C(=O)[C@H](CC(C)C)NC(=O)[C@@H](C)C(O)[C@H](C(C)C)OC(=O)C[C@@H]1O` (some centres undefined) [DIHYDRODIDEMNIN A] yielded an IC50 in the test on L1210 of 520 ng/mL (≈ 550 nM).

In the case of `Nc1ncnc2c1ncn2[C@@H]1O[C@H](CO)[C@@H](O)[C@@H]1O`, the result with Human alphaherpesvirus 1 [6] was inactive. For the same molecule, the result in the test with Human alphaherpesvirus 1 [7] was Active.

Molecule `CC[C@H](C)[C@@H]1NC(=O)[C@@H](NC(=O)[C@@H](CC(C)C)N(C)C(C)=O)[C@@H](C)OC(=O)[C@H](Cc2ccc(OC)cc2)N(C)C(=O)[C@@H]2CCCN2C(=O)[C@H](CC(C)C)NC(=O)[C@@H](C)C(=O)[C@H](C(C)C)OC(=O)C[C@@H]1OC(C)=O` [N,O-DIACETYLDIDEMNIN A] returned an IC50 in the test with L1210 of 15 ng/mL (≈ 14.6 nM).

Take `CC[C@H](C)[C@@H]1NC(=O)[C@@H](NC(=O)[C@@H](CC(C)C)N(C)C(C)=O)[C@@H](C)OC(=O)[C@H](Cc2ccc(OC)cc2)N(C)C(=O)[C@@H]2CCCN2C(=O)[C@H](CC(C)C)NC(=O)[C@@H](C)C(=O)[C@H](C(C)C)OC(=O)C[C@@H]1O` [N-ACETYLDIDEMNIN A]: the 50% inhibitory concentration (IC50) in the test with L1210 amounted to 2.4 ng/mL (≈ 2.44 nM).
